Laboratory results as given in US20010046509A1, “Use of cinnamic acid or of its derivatives in a cosmetic firming composition” (priority 1997, published 2001).

System: normal human dermal fibroblast cultures
Assay: Effect on collagen synthesis: incorporation of radioactive proline into fibroblast cultures
Format: cell-based
Settings: for tritiated proline incorporated, cpm (counts per minute): untreated cells 19261 cpm; for tritiated proline incorporation, % relative to untreated cells: untreated cells = 100
Experimental: The study is carried out by measuring the incorporation of radioactive proline into normal human dermal fibroblast cultures. The fibroblast cultures are prepared according to the standard methods of cell culturing, i.e. in MEM/M199 medium sold by the company Gibco, in the presence of sodium bicarbonate (1.87 mg/ml), L-glutamine (2 mM), penicillin (50 IU/ml) and 10% foetal calf serum (Gibco). The test is carried out on cell cultures at 80% confluence on 24-well plates. Cinnamic acid, at a concentration of 10^−4M is placed in contact with the cells for 48 hours. Labelling with tritiated proline (L-[2,3-^3H]-proline sold by Amersham, 33 μCi/ml) is carried out for 24 hours. The level of tritiated proline incorporated is measured at the end of the test by acidic precipitation of the proteins on filters and counting by liquid scintillation. The results are assessed relative to a control consisting of cells which have not been treated with cinnamic acid. A positive control (20 μg/ml of vitamin C), which is known to stimulate collagen synthesis, and a negative control (10^−6M retinoic acid), which is known to inhibit collagen synthesis, are introduced into the test by way of reference.

[1] = cinnamic acid 10^-4 M, 48 hours contact, 24 hours labelling
[2] = negative control, 10^-6 M retinoic acid
[3] = positive control, 20 μg/ml of vitamin C

O=C(O)C=Cc1ccccc1 [Cinnamic acid]
incorporation of proline into collagen (collagen neosynthesis), result in words (cinnamic acid 10^-4 M, 48 hours): significantly stimulates the incorporation of proline into collagen
tritiated proline incorporated, cpm (counts per minute) [1]: 26209 cpm
tritiated proline incorporation, % relative to untreated cells [1]: 136%

CC1=C(/C=C/C(C)=C/C=C/C(C)=C/C(=O)O)C(C)(C)CCC1 [Retinoic acid, retinoic acid]
tritiated proline incorporated, cpm (counts per minute) [2]: 13160 cpm
tritiated proline incorporation, % relative to untreated cells [2]: 68%

O=C1O[C@H]([C@@H](O)CO)C(O)=C1O [Vitamin C, vitamin C]
tritiated proline incorporated, cpm (counts per minute) [3]: 40344 cpm
tritiated proline incorporation, % relative to untreated cells [3]: 209%
